Here are results for 24 compounds from patent publication US8541418B2, “Inhibitors of polo-like kinase” (Elan Pharmaceutical, Inc., priority 2009, dated 2013).

Like-named read-outs stand apart in the source and are kept apart here. Bounds are passed on as bounds.

What all share (assay type): biochemical
For test [1], the target named is PLK1 (Homo sapiens, UniProt P53350). The test is described as follows: PLK TR-FRET peptide assay, PLK1.
Test [2] has as its target PLK2 (Homo sapiens, UniProt Q9NYY3). Nature of the test: PLK TR-FRET peptide assay, PLK2. Particulars: for IC50: PLK TR-FRET peptide assay, read-out: Plk2 IC50; for relative PLK2 activity of the enantiomers: compared with the opposite enantiomer.
Test [3] deals with PLK3 (Homo sapiens, UniProt Q9H4B4). The test is described as follows: PLK TR-FRET peptide assay, PLK3.
PLK3, sequence (Q9H4B4 whole entry): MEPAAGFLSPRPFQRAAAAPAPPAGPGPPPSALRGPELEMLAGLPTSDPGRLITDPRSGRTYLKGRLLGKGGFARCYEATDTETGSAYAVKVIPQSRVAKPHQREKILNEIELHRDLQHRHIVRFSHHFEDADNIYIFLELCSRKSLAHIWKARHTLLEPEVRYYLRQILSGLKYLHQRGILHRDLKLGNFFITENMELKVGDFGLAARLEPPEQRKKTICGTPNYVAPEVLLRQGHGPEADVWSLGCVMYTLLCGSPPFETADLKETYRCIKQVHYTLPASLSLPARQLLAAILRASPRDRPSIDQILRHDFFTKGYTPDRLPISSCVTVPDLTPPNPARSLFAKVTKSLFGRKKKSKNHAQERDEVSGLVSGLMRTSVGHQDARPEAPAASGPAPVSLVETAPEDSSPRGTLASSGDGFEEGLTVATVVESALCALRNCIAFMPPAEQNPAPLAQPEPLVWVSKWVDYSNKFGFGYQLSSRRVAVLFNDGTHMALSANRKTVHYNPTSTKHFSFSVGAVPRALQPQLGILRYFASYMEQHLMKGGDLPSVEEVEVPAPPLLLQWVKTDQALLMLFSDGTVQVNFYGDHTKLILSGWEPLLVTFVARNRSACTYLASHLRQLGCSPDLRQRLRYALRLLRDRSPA
[4] abbreviates: GST-PLK3, 15 min reaction, read-out: Plk3 IC50.

PLK1, sequence (P53350 whole entry): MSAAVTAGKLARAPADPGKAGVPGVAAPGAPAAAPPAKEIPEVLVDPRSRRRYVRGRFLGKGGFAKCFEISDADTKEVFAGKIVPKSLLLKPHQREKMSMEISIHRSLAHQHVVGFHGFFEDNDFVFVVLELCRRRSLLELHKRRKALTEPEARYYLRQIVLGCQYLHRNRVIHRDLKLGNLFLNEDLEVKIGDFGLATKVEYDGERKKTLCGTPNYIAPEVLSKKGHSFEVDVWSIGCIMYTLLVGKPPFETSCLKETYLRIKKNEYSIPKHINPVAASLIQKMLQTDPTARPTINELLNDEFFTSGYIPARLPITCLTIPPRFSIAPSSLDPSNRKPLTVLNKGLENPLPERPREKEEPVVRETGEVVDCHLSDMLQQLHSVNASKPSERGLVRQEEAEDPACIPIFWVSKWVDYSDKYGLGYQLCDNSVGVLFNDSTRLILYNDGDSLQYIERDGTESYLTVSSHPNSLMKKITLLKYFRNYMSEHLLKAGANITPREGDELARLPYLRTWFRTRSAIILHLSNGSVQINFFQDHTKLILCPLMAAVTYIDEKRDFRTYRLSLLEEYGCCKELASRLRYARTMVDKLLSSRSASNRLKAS
PLK2, sequence (Q9NYY3 whole entry): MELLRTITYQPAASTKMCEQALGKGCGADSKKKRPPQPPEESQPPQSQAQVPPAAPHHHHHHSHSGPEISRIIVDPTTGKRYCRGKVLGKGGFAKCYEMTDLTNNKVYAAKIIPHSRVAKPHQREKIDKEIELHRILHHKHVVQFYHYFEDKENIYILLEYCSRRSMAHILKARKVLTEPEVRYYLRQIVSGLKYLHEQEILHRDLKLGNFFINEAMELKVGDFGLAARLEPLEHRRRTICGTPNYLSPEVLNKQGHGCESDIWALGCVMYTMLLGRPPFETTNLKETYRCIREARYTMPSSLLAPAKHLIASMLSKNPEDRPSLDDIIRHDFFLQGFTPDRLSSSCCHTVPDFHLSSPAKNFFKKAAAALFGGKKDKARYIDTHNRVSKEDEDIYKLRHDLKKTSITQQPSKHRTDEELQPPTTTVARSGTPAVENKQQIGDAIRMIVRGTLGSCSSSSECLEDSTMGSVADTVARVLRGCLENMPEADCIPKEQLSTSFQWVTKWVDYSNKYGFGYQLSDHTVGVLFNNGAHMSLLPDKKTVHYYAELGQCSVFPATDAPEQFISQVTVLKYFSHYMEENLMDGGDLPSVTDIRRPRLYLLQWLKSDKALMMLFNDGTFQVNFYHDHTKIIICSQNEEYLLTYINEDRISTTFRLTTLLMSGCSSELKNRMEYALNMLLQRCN

Consider `CC[C@H]1C(=O)N(C)c2cnc(-c3cn[nH]c3-c3nccs3)nc2N1c1ccc(Cl)cc1` [Example 383, (S)-8-(4-chlorophenyl)-7-ethyl-5-methyl-2-(5-(thiazol-2-yl)-1H-pyrazol-4-yl)-7,8-dihydropteridin-6(5H)-one], for which the IC50 was 10 to 50 µM in test [1] (GST-PLK1); 1 to 10 µM in test [2] (GST-PLK2); > 50 µM in test [3] (GST-PLK3, read-out: Plk3 IC50).

Regarding `CC[C@@]12CCCCN1c1nc(-n3ccnc3-c3cccc(F)c3F)ncc1N(C)C2=O` [Example 259, (S)-2-(2-(2,3-difluorophenyl)-1H-imidazol-1-yl)-6a-ethyl-5-methyl-7,8,9,10-tetrahydro-5H-pyrido[2,1-h]pteridin-6(6aH)-one], the half-maximal inhibitory concentration (IC50) in test [1] (GST-PLK1, 60 min reaction) was 1 to 10 µM; in test [2] (GST-PLK2, 60 min reaction), < 1 µM; in test [3] (setting [4]), 1 to 10 µM. The “relative PLK2 activity of the enantiomers” value (“relative PLK2 activity” below) in test [2] is on record as “more active compound”.

As for `CC[C@@H]1C(=O)N(C)c2cnc(-c3ccnc(N(C)C)c3)nc2N1C1CCCC1` [Example 21, (R)-8-cyclopentyl-2-(2-(dimethylamino)pyridin-4-yl)-7-ethyl-5-methyl-7,8-dihydropteridin-6(5H)-one], the IC50 in test [1] (GST-PLK1, 60 min reaction) is < 1 µM; in test [2] (GST-PLK2, 60 min reaction) it was < 1 µM; in test [3] (setting [4]), 10 to 50 µM.

In the case of `CC[C@@H]1C(=O)N(C)c2cnc(-c3cnsc3-c3ccc(F)cc3)nc2N1c1cccc(C#N)c1` [Example 391, (R)-3-(7-ethyl-2-(5-(4-fluorophenyl)isothiazol-4-yl)-5-methyl-6-oxo-6,7-dihydropteridin-8(5H)-yl)benzonitrile], the concentration for half-maximal inhibition (IC50) was < 1 µM in test [1] (GST-PLK1); < 1 µM in test [2] (GST-PLK2); < 1 µM in test [3] (GST-PLK3, read-out: Plk3 IC50). In addition, in test [2], the “relative PLK2 activity” value was “more active compound”.

As for `CC[C@@]12CCCN1c1nc(-n3ncnc3C#Cc3ccccc3)ncc1N(C)C2=O` [Example 235, (S)-6a-ethyl-5-methyl-2-(5-(phenylethynyl)-1H-1,2,4-triazol-1-yl)-6a,7,8,9-tetrahydropyrrolo[2,1-h]pteridin-6(5H)-one], the IC50 is > 50 µM in test [1] (GST-PLK1, 60 min reaction); 10 to 50 µM in test [2] (GST-PLK2, 60 min reaction); 10 to 50 µM in test [3] (setting [4]).

Regarding `CC[C@@H]1C(=O)N(C)c2cnc(-n3ccnc3-c3ccc(F)cc3)nc2N1C(C)C1CC1` (stereo partly drawn) [Example 351, (7R)-8-(1-cyclopropylethyl)-7-ethyl-2-(2-(4-fluorophenyl)-1H-imidazol-1-yl)-5-methyl-7,8-dihydropteridin-6(5H)-one], the 50% inhibitory concentration (IC50) in test [1] (GST-PLK1, 60 min reaction) is 1 to 10 µM; in test [2] (GST-PLK2, 60 min reaction), < 1 µM; in test [3] (setting [4]), 1 to 10 µM.

Consider `CC[C@@]12CCCN1c1nc(-n3ccnc3-c3cc(Cl)cc(Cl)c3)ncc1N(C)C2=O` [Example 184, (S)-2-(2-(3,5-dichlorophenyl)-1H-imidazol-1-yl)-6a-ethyl-5-methyl-6a,7,8,9-tetrahydropyrrolo[2,1-h]pteridin-6(5H)-one], for which the IC50 was 10 to 50 µM in test [1] (GST-PLK1, 60 min reaction); < 1 µM in test [2] (GST-PLK2, 60 min reaction); 10 to 50 µM in test [3] (setting [4]).

Consider `CC[C@@H]1C(=O)N(C)c2cnc(-c3ccncc3)nc2N1C(C)C` [Example 23, (R)-7-ethyl-8-isopropyl-5-methyl-2-(pyridin-4-yl)-7,8-dihydropteridin-6(5H)-one], for which the concentration for half-maximal inhibition (IC50) is 1 to 10 µM in test [1] (GST-PLK1, 60 min reaction); < 1 µM in test [2] (GST-PLK2, 60 min reaction); > 50 µM in test [3] (setting [4]).

For `[2H]C([2H])([2H])N1C(=O)C(C([2H])([2H])C([2H])([2H])[2H])N(C([2H])(C([2H])([2H])[2H])C([2H])([2H])[2H])c2nc(-n3ccnc3-c3nccs3)ncc21` (stereo not drawn) [Example 158, 7-perdeuteroethyl-8-perdeuteroisopropyl-5-trideuteromethyl-2-(2-(thiazol-2-yl)-1H-imidazol-1-yl)-7,8-dihydropteridin-6(5H)-one], the IC50 in test [1] (GST-PLK1, 60 min reaction) was 1 to 10 µM; in test [2] (GST-PLK2, 60 min reaction) it was < 1 µM; in test [3] (setting [4]) it was 10 to 50 µM.

As to `CC[C@@H]1C(=O)N(C)c2cnc(-c3ccncc3CNC(=O)OC)nc2N1C1CCCC1` [Example 121, (R)-methyl (4-(8-cyclopentyl-7-ethyl-5-methyl-6-oxo-5,6,7,8-tetrahydropteridin-2-yl)pyridin-3-yl)methylcarbamate], the IC50 lay within 10 to 50 µM in test [1] (GST-PLK1, 60 min reaction); 1 to 10 µM in test [2] (GST-PLK2, 60 min reaction); 10 to 50 µM in test [3] (setting [4]).

`CC[C@@H]1C(=O)N(C)c2cnc(-c3cccc(C(N)=O)c3)nc2N1C1CCCC1` [Example 66, (R)-3-(8-cyclopentyl-7-ethyl-5-methyl-6-oxo-5,6,7,8-tetrahydropteridin-2-yl)benzamide]: the 50% inhibitory concentration (IC50) is < 1 µM in test [1] (GST-PLK1, 60 min reaction); < 1 µM in test [2] (GST-PLK2, 60 min reaction); 1 to 10 µM in test [3] (setting [4]).

`CC[C@@]12CCCN1c1nc(-c3cncnc3-c3ccccc3)ncc1N(C)C2=O` [Example 222, (S)-6a-ethyl-5-methyl-2-(4-phenylpyrimidin-5-yl)-6a,7,8,9-tetrahydropyrrolo[2,1-h]pteridin-6(5H)-one]: the IC50 in test [1] (GST-PLK1, 60 min reaction) lay in the range of 10 to 50 µM; in test [2] (GST-PLK2, 60 min reaction), 1 to 10 µM; in test [3] (setting [4]), 10 to 50 µM.

As for `CC[C@@H]1C(=O)N(C)c2cnc(-n3ccnc3N3CCN(C)CC3)nc2N1C1CCCC1` [Example 88, (R)-8-cyclopentyl-7-ethyl-5-methyl-2-(2-(4-methylpiperazin-1-yl)-1H-imidazol-1-yl)-7,8-dihydropteridin-6(5H)-one], the IC50 in test [1] (GST-PLK1, 60 min reaction) was 10 to 50 µM; in test [2] (GST-PLK2, 60 min reaction), 10 to 50 µM; in test [3] (setting [4]) it was > 50 µM.

For the compound `CC[C@@H]1C(=O)N(C)c2cnc(-n3ccnc3-c3ccc(F)cc3)nc2N1c1cccc(C#N)c1` [Example 358, (R)-3-(7-ethyl-2-(2-(4-fluorophenyl)-1H-imidazol-1-yl)-5-methyl-6-oxo-6,7-dihydropteridin-8(5H)-yl)benzonitrile], the IC50 in test [1] (GST-PLK1, 60 min reaction) was 1 to 10 µM; in test [2] (GST-PLK2, 60 min reaction), < 1 µM; in test [3] (setting [4]), 1 to 10 µM. The “relative PLK2 activity” value in test [2] is “more active compound”.

`CC[C@@H]1C(=O)N(C)c2cnc(-c3ccnc(NC)c3)nc2N1C1CCCC1` [Example 20, (R)-8-cyclopentyl-7-ethyl-5-methyl-2-(2-(methylamino)pyridin-4-yl)-7,8-dihydropteridin-6(5H)-one]: the half-maximal inhibitory concentration (IC50) was < 1 µM in test [1] (GST-PLK1, 60 min reaction); < 1 µM in test [2] (GST-PLK2, 60 min reaction); 10 to 50 µM in test [3] (setting [4]).

With `CC[C@@H]1C(=O)N(C)c2cnc(-n3ccnc3-c3cccc(F)c3F)nc2N1C1CCOC1` (stereo partly drawn) [Example 253, (7R)-2-(2-(2,3-difluorophenyl)-1H-imidazol-1-yl)-7-ethyl-5-methyl-8-(tetrahydrofuran-3-yl)-7,8-dihydropteridin-6(5H)-one], the IC50 in test [1] (GST-PLK1, 60 min reaction) was < 1 µM; in test [2] (GST-PLK2, 60 min reaction) it was < 1 µM; in test [3] (setting [4]), 1 to 10 µM.

On to `CC[C@@H]1C(=O)N(C)c2cnc(-n3ccnc3-c3ccc(F)cn3)nc2N1CCC(F)(F)F` [Example 244, (R)-7-ethyl-2-(2-(5-fluoropyridin-2-yl)-1H-imidazol-1-yl)-5-methyl-8-(3,3,3-trifluoropropyl)-7,8-dihydropteridin-6(5H)-one], for which the IC50 is 10 to 50 µM in test [1] (GST-PLK1, 60 min reaction); < 1 µM in test [2] (GST-PLK2, 60 min reaction); > 50 µM in test [3] (setting [4]).

Regarding `CC[C@@H]1C(=O)N(C)c2cnc(-c3c[nH]nc3-c3ccccc3)nc2N1C(C)C` [Example 164, (R)-7-ethyl-8-isopropyl-5-methyl-2-(3-phenyl-1H-pyrazol-4-yl)-7,8-dihydropteridin-6(5H)-one], the IC50 in test [1] (GST-PLK1, 60 min reaction) is < 1 µM; in test [2] (GST-PLK2, 60 min reaction), < 1 µM; in test [3] (setting [4]), < 1 µM.

Regarding `CC[C@@]12CCCN1c1nc(-n3nccc3-c3ccccc3)ncc1N(C)C2=O` [Example 193, (S)-6a-ethyl-5-methyl-2-(5-phenyl-1H-pyrazol-1-yl)-6a,7,8,9-tetrahydropyrrolo[2,1-h]pteridin-6(5H)-one], the half-maximal inhibitory concentration (IC50) in test [1] (GST-PLK1, 60 min reaction) lay within 1 to 10 µM; in test [2] (GST-PLK2, 60 min reaction), 1 to 10 µM; in test [3] (setting [4]) it was 1 to 10 µM.

In the case of `CC[C@@H]1C(=O)N(C)c2cnc(-n3ccnc3C)nc2N1C1CCCC1` [Example 27, (R)-8-cyclopentyl-7-ethyl-5-methyl-2-(2-methyl-1H-imidazol-1-yl)-7,8-dihydropteridin-6(5H)-one], the IC50 in test [1] (GST-PLK1, 60 min reaction) was 1 to 10 µM; in test [2] (GST-PLK2, 60 min reaction), < 1 µM; in test [3] (setting [4]), > 50 µM.

For the compound `CC[C@@H]1C(=O)N(C)c2cnc(-n3ccnc3-c3ccc(F)c(Cl)c3)nc2N1C(C)C` [Example 186, (R)-2-(2-(3-chloro-4-fluorophenyl)-1H-imidazol-1-yl)-7-ethyl-8-isopropyl-5-methyl-7,8-dihydropteridin-6(5H)-one], the 50% inhibitory concentration (IC50) in test [1] (GST-PLK1, 60 min reaction) is 1 to 10 µM; in test [2] (GST-PLK2, 60 min reaction), < 1 µM; in test [3] (setting [4]), 1 to 10 µM.

Regarding `CCC12CCCCCN1c1nc(-n3ncnc3-c3cccc4ncccc34)ncc1N(C)C2=O` (racemic) [Example 217, (+/−) 6a-ethyl-5-methyl-2-(5-(quinolin-5-yl)-1H-1,2,4-triazol-1-yl)-6a,7,8,9,10,11-hexahydroazepino[2,1-h]pteridin-6(5H)-one], the half-inhibitory concentration (IC50) in test [1] (GST-PLK1, 60 min reaction) was > 50 µM; in test [2] (GST-PLK2, 60 min reaction), 10 to 50 µM; in test [3] (setting [4]) it was > 50 µM.

Regarding `[2H]C([2H])([2H])N1C(=O)C(C([2H])([2H])C([2H])([2H])[2H])N(C([2H])(C([2H])([2H])[2H])C([2H])([2H])[2H])c2nc(-n3ccnc3-c3cccc(OC(F)(F)F)c3)ncc21` (stereo not drawn) [Example 160, 7-perdeuteroethyl-8-perdeuteroisopropyl-5-trideuteromethyl-2-(2-(3-(trifluoromethoxy)phenyl)-1H-imidazol-1-yl)-7,8-dihydropteridin-6(5H)-one], the IC50 in test [1] (GST-PLK1, 60 min reaction) was 1 to 10 µM; in test [2] (GST-PLK2, 60 min reaction) it was < 1 µM; in test [3] (setting [4]), 10 to 50 µM.

For the compound `CC[C@@H]1C(=O)N(C)c2cnc(-c3ccncc3CNC(=O)c3ccccc3)nc2N1C(C)C` [Example 130, (R)—N-((4-(7-ethyl-8-isopropyl-5-methyl-6-oxo-5,6,7,8-tetrahydropteridin-2-yl)pyridin-3-yl)methyl)benzamide], the IC50 is > 50 µM in test [1] (GST-PLK1, 60 min reaction); > 50 µM in test [2] (GST-PLK2, 60 min reaction); > 50 µM in test [3] (setting [4]).
